Source: publication PMC12257073 (Cancer Research Communications, 2025)
Like-named read-outs stand apart in the source and are kept apart here.

Tests used:
TP53-mutated AML = conditions: cited from earlier work
[1] = Adverse events (treatment-related and all-cause) and dose-limiting toxicities, NCI CTCAE version 4.0; conditions: all treated patients, TP-0903 + decitabine
Method: The phase 1b portion of the study used a standard 3 + 3 dose-escalation design with a starting dose level 1 (DL1) of 37 mg oral daily TP-0903 (Supplementary Table S2) based on experience with 50 mg oral daily as a single agent in patients with solid tumors ([25]). Dose-limiting toxicities (DLT) were evaluated to establish the dose brought forward for an expansion cohort (phase 2). Seven patients were enrolled in the phase 1b study, which was completed in January 2021 with the decision to move forward with an expansion cohort of 37 mg oral daily. Across the phase 1b and phase 2 studies, 15 patients were enrolled and started on 37 mg TP-0903 oral daily on days 1 to 21 (group 1). […] One additional patient was enrolled at this time but was inadvertently started on 25 mg TP-0903 oral daily on days 1 to 21. […] In May 2021, an amendment was approved to allow enrollment of a new group 2 at 25mg oral daily on days 1 to 21 of TP-0903 (DL-1) in stage 2 of the phase 2 study.
Clinical response was assessed according to the modified 2017 European LeukemiaNet AML criteria ([26]). The primary endpoint was achievement of CR within six cycles of therapy. Secondary endpoints included toxicity, duration of response, OS, and the proportion of eligible patients who effectively transitioned to allogeneic stem cell transplantation. Exploratory endpoints included pharmacokinetics (PK), correlative genetic, and biochemical data; correlations between morphologic remission, spectral flow cytometry, and mutational remission; and duration of remission or survival. […] Adverse events (AE) were graded according to the NCI Common Terminology Criteria for Adverse Events version 4.0 ([27]).

Nc1ncn([C@@H]2O[C@H](CO)[C@@H](O)[C@H]2O)c(=O)n1 [azacitidine]
Median OS (TP53-mutated AML; TP53-mutated patients, azacitidine): 7.9 months

Nc1ncn([C@H]2C[C@H](O)[C@@H](CO)O2)c(=O)n1 [decitabine, reference compound]
Serious AEs related to decitabine [1]: only one patient had a serious AE related to decitabine (grade 3 pneumonia)

c1cn2cc(-c3ccc4cn[nH]c4c3)nc(Nc3ccc(N4CCOCC4)cc3)c2n1 [entospletinib]
CR + CRi rate (TP53-mutated AML; entospletinib and a 10-day course of decitabine, complex karyotype AML with a TP53 mutation): 17.1% | Median OS (TP53-mutated AML; entospletinib combined with decitabine, patients with mutant TP53): 6.5 months

COCC1(CO)C(=O)C2CCN1CC2 (stereo not drawn) [eprenetapopt]
Median OS (TP53-mutated AML; eprenetapopt combined with azacitidine): less than 1 year | CR rate (TP53-mutated AML; eprenetapopt, mutant p53): ≤ 17%

CC1(C)CCC(CN2CCN(c3ccc(C(=O)NS(=O)(=O)c4ccc(NCC5CCOCC5)c([N+](=O)[O-])c4)c(Oc4cnc5[nH]ccc5c4)c3)CC2)=C(c2ccc(Cl)cc2)C1 [venetoclax]
Median OS (TP53-mutated AML; venetoclax added to HMAs, no difference vs HMA alone): approximately 5.2 months | CR + CRi rate (TP53-mutated AML; venetoclax added to HMAs): 55% | Median OS (TP53-mutated AML; venetoclax and azacitidine, TP53-mutated patients with poor-risk cytogenetics): 5.2 months | Median OS (TP53-mutated AML; venetoclax in combination with azacitidine, older or medically unfit patients with AML): ≤ 17.5 months | CR + CRi rate (TP53-mutated AML; venetoclax plus azacitidine, patients with mutant TP53): 55%

magrolimab
Median OS (TP53-mutated AML; magrolimab and azacitidine, TP53-mutated patients): 9.8 months
